Measured values reported in patent US20060252774A1, “Regulation of type 5 adenylyl cyclase for treatment of neurodegenerative and cardiac diseases” (priority 2002, published 2006).
“And” between values parts separate entries of the source, which are not always exact repeats. Equal values may be shown once. “Also recorded” adds a separate entry of the source. Blank lines part the entries; values can stand above or below the compound they belong to.

Columns and labels:
AC5 [1] = molecular target: T1, AC5 (Canis lupus familiaris, UniProt P30803); experiment: AC catalytic activity inhibition, AC5 isoform; assay type: biochemical; set-up: IC50 for AC5; other: 5 mM MgCl2 with Gsalpha/GTPgammaS/forskolin (50 micro M); other: in the presence of Gsalpha/GTPgammaS/forskolin; other: 10 micro M; conditions: for IC50: 5 mM MgCl2 with Gsalpha/GTPgammaS/forskolin (50 micro M)
T1 sequence (P30803 whole entry, canonical isoform): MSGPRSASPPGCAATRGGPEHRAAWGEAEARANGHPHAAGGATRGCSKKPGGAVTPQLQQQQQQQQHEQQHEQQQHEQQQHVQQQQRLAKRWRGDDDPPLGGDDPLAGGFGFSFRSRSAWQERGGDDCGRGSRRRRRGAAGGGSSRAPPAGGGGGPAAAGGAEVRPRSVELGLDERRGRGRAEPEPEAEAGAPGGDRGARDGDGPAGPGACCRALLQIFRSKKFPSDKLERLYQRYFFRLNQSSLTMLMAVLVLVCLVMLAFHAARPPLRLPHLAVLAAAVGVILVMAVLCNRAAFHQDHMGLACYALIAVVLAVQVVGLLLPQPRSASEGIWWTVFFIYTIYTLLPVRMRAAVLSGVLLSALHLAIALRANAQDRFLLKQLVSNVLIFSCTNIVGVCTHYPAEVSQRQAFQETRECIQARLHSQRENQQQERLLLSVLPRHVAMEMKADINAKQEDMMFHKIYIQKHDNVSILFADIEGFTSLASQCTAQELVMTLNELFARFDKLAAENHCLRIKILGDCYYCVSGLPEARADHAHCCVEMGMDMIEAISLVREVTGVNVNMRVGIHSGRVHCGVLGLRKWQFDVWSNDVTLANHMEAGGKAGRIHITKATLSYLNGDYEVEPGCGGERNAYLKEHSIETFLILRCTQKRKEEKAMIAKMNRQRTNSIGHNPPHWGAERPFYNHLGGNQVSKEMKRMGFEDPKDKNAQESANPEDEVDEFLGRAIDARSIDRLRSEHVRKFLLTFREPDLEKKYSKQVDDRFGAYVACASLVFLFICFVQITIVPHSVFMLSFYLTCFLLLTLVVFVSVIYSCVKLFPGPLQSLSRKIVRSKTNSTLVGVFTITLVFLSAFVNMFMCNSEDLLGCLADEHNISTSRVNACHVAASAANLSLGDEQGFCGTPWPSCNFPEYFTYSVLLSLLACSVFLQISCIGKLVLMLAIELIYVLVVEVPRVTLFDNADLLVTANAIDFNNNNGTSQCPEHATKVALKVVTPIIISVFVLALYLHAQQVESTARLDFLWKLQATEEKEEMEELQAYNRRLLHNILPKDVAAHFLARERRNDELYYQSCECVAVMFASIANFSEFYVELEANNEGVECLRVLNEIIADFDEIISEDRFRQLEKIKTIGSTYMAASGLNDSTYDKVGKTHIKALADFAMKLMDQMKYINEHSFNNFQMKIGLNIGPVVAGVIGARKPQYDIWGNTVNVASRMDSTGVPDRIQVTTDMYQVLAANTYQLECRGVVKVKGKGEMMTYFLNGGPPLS
Text: FIG. 11. […] The relative inhibitory activity versus control (% control activity) for various AC isoforms are shown. Data are means±S.D. of quadruplicate determinations.
Classic inhibitors of AC include adenosine analogs or P-site inhibitors, and MDL12330A, a non-nucleic acid inhibitor. However, not much was known about the isoform selectivity of these inhibitors. […] It was previously noted that AC2 was less sensitive to THFA than the other isoforms, giving a selectivity ratio of 1.8 when compared between AC6 and AC2.
Inventors will first determine the selectivity among the AC isoforms (FIG. 12). […] The IC50 values were calculated to be 0.32 micro M for AC5, 11.1 micro M for AC3, 65.3 micro M for AC2. The selectivity ratio of HI30435 was 207 between AC5 and AC2. […] The selectivity ratio was 18 between AC5 and AC2.

cardiac AC = experiment: AC assay in heart membrane preparations; assay type: biochemical, mouse; conditions: 10 μM
Protocol: FIG. 17: Adrenergic, muscarinic, and Ca^2+-mediated regulation of cardiac AC activity. A, AC activity in vitro. The steady state AC activity was determined as the maximal cAMP production over 15 min. Stimulation was performed at the level of the β-AR (ISO), G-protein (GTPγS) and AC catalytic unit with forskolin (Fsk). *P<0.01, n=5. B, Effects of carbachol on AC activity. AC was preactivated by ISO. AC activity was then determined in the absence and presence of carbachol. Carbachol at 10 μmol/L produced its maximal inhibitory effect. *P<0.01, n−5. C, To investigate the inhibition of AC activity by Ca^2+, we examined cAMP production in membranes from the hearts of WT and AC5KO at increasing Ca^2+ concentrations in the presence of ISO. ISO-stimulated AC activity was inhibited more in WT than in AC5KO. […].
Hearts were dissected from the mice and membrane preparations were prepared as described previously. Protein concentration was measured by the method of Bradford using bovine serum albumin as a standard. AC activity was measured as described previously. AC activity was linear within the incubation time up to 30 min. In order to harvest hearts for tissue cAMP content measurements, mice were allowed to acclimate to the surroundings in the laboratory for an hour before sacrifice. Freshly isolated hearts were briefly immersed in liquid nitrogen. The tissue was homogenized in ice-cold 6% percholic acid, and cAMP was extracted as described before. The concentration of cAMP was determined with an RIA kit (PerkinElmer Life Sciences, Boston, Mass., USA).
Hearts were dissected from the mice, and membrane preparations were prepared as described previously. Protein concentration was measured by the Bradford method using bovine serum albumin as a standard. AC activity was measured as described previously. AC activity was linear within the incubation time up to 30 min. For the study of Ca 2+ inhibition, the membranes were treated first with EGTA to extract the endogenous Ca 2+ prior to the assay. Free Ca 2+ concentrations were obtained with the use of 200 μmol/L EGTA buffers as described previously. The experiments with Ca 2+ inhibition were conducted in the presence of 100 μmol/L isoproterenol (ISO)+100 μmol/L GTP.

[2] = tested on: conscious WT and AC5KO mice; experiment: Physiological studies in conscious mice: HR (ECG) and arterial pressure; assay type: in vivo, mouse; conditions: for change of HR: 0.75 mg/kg i.v.; for increase in HR: 1 μg/g i.v.
Text: FIG. 19: Muscarinic regulation of cardiac function in vivo. A, Effects of atropine. […] B, Effect of ACh. […] C, Baroreflex regulation of HR.
In AC5KO and WT mice, four ECG wires (New England Electric Wire Corporation, Lisbon, N.H., USA) were placed subcutaneously, a silicone elastomer tubing (Cardiovascular Instrument Corp., Wakefield, Mass., USA) was inserted into the right external jugular vein and a 1.4 F micromanometer catheter (Millar Instruments, Inc., Houston, Tex., USA) was inserted into the lower abdominal aorta via the femoral artery as described previously with some modifications. The ECG wires, the silicone elastomer tubing and the micromanometer catheter were tunneled subcutaneously to the back, externalized, and secured in a plastic cap. On the day of the study, each mouse was placed in the mouse holder, the jugular venous catheter was accessed and connected to a microliter syringe (Hamilton Co., Reno, Nev., USA), the 1.4 F micromanometer catheter was connected to a recorder (Dash 4u; Astro-Med, Inc., West Warwick, R.I., USA) and the ECG wires were connected to an ECG amplifier (Gould Inc., Cleveland, Ohio, USA). All experiments were recorded with animals in the conscious state. After at least 6 hours recovery from the implantation of the catheter, when a stable HR was achieved, the baseline ECG and arterial pressure (AP) were recorded for 5 min. Ach (0.05 μg/g) was then administered intravenously (i.v.), and the ECG and AP recording were repeated. A recovery period of 15 min was allowed for the HR and AP to return to baseline before administering the next drug. Baseline HR slowing was examined in response to phenylephrine (0.2 μg/g i.v.).
Electrocardiogram (ECG) wires, a jugular vein catheter for drug infusion, and a femoral artery catheter for arterial pressure monitoring were implanted under anesthesia as described previously. […] Intravenous (i.v.) infusion of ISO (0.04 μg/kg/min i.v. for 5 min) was performed using an infusion pump. To examine the responses to a muscarinic agonist, acetylcholine (ACh) (25 mg/kg i.p.) was co-administered i.p. during the i.v. infusion of ISO (0.04 μg/kg/min). In addition, in conscious mice ACh (0.01 and 0.05 mg/kg), atropine (0.25, 1 and 2 mg/kg), or verapamil (0.75 mg/kg) were administered i.v., and the ECG was recorded. A recovery period of 15 min was allowed for the HR to return to baseline before administering the next drug. To examine HR responses to baroreflex hypertension, phenylephrine (0.2 mg/kg i.v.) was infused, and the ECG and arterial pressure were measured

AC5 [3] = molecular target: T1, AC5; experiment: Adenyl cyclase stimulation by forskolin derivatives, High five cell membranes overexpressing type V; assay type: biochemical; set-up: made in house; host or cells: High Five insect cells (membranes); conditions: forskolin derivatives
Protocol: FIG. 15: Effect of forskolin, 6[3-(dimethylamino)propionyl]-14,15-dihydroforskolin, and NKH477 on adenyl cyclase [isforms.] isoforms: Forskolin derivatives dose response effect (A-C). High five cell membranes overexpressing type II (A), type III (B), and type V (C) adenyl cyclases. Adenyl cyclase activity was measured in the presence of 5 mM of MgCl2 with various concentrations of forskolin (closed circles), 6[3-(dimethylamino)propionyl]-14,15-dihydroforskolin (D, open triangles) or NKH477 (open circles). Means±SEM from 4 independent experiments are shown. *, p<0.01 differences from the value with forskolin.

AC2 = AC2 (Rattus norvegicus, UniProt P26769); experiment: AC catalytic activity inhibition, AC2 isoform; assay type: biochemical; conditions: in the presence of Gsalpha/GTPgammaS/forskolin
Text: (§1) Classic inhibitors of AC include adenosine analogs or P-site inhibitors, and MDL12330A, a non-nucleic acid inhibitor.
(§2) Inventors will first determine the selectivity among the AC isoforms (FIG. 12).

AC3 = molecular target: T2, AC3 (Rattus norvegicus, UniProt P21932); experiment: AC catalytic activity inhibition, AC3 isoform; assay type: biochemical; conditions: in the presence of Gsalpha/GTPgammaS/forskolin
T2 sequence (P21932 1-1144): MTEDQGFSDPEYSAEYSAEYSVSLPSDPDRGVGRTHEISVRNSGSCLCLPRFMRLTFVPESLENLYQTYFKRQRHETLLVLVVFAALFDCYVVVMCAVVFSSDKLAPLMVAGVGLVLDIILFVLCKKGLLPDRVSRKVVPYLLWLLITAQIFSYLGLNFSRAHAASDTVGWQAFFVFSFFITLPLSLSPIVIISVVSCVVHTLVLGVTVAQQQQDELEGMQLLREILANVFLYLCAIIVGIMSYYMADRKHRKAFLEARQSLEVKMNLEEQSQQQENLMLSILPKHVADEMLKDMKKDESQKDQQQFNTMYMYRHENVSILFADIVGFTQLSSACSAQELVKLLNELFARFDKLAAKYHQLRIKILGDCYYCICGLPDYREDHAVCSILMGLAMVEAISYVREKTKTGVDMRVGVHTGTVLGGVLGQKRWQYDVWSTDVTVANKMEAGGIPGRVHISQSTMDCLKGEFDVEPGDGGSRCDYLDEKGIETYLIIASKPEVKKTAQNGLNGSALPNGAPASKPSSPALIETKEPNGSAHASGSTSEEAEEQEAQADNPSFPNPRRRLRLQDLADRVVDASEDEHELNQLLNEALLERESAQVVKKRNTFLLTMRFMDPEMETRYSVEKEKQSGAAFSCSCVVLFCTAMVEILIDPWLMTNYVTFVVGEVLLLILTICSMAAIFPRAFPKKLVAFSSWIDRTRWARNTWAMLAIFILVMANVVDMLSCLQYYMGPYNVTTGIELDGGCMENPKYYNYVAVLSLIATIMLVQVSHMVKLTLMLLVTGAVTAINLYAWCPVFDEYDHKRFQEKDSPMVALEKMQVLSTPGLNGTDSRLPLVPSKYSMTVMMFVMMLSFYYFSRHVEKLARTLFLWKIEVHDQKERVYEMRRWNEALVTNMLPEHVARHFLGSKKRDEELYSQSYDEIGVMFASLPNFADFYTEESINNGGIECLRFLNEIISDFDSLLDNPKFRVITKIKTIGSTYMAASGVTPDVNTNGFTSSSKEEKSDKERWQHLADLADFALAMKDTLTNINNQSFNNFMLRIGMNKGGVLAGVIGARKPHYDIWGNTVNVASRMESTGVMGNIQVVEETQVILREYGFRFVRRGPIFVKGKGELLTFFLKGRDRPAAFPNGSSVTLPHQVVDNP
Text: as §1, §2

IC50 (AC5 [1]): 0.82 µM
Structure (SMILES): Nc1ncnc2c1ncn2[C@H]1C[C@H](OP(=O)(O)O)[C@@H](CO)O1 [2′-d-3′-AMP]

IC50 (AC5 [1]): 14.6 µM
Structure (SMILES): Nc1ncnc2c1ncn2[C@@H]1O[C@H](CO)[C@@H](OP(=O)(O)O)[C@H]1O [3′-AMP]

Structure (SMILES): C[N+](C)(C)CCOC(N)=O [Carbachol]
decrease of ISO-stimulated AC activity (in words) (cardiac AC; AC5KO heart membranes): did not inhibit; also recorded: hardly detectable
decrease of ISO-stimulated AC activity (cardiac AC; WT heart membranes, ISO 100 μM + GTP 100 μM): 21±3.4% and 21±3%

Structure (SMILES): COc1ccc(CCN(C)CCCC(C#N)(c2ccc(OC)c(OC)c2)C(C)C)cc1OC (stereo not drawn) [verapamil]
change of HR ([2]; conscious AC5KO): −33±10 beats/min
change of HR ([2]; conscious WT): −36±10 beats/min

AC5 selectivity of stimulation (in words) (AC5 [3]): small enhancement in AC5 selectivity
Structure (SMILES): CC[C@@]1(C)CC(=O)[C@@]2(O)[C@]3(C)[C@H](O)CCC(C)(C)[C@H]3[C@@H](O)[C@@H](OC(C)=O)[C@]2(C)O1 [14,15-Dihydroforskolin]

Structure (SMILES): CN1[C@@H]2CC[C@H]1C[C@@H](OC(=O)C(CO)c1ccccc1)C2 (stereo partly drawn) [atropine]
increase in HR ([2]; conscious AC5KO): 19±7.5 beats/min
increase in HR (in words) ([2]; conscious AC5KO, 1 mg/kg i.v. (Example 3)): not observed in AC5KO
increase in HR ([2]; conscious WT): 102±22.2 beats/min

Structure (SMILES): CNC[C@H](O)c1cccc(O)c1 [Phenylephrine, phenylephrine]
systolic arterial pressure (in words) ([2]; WT and AC5KO, 0.2 μg/g (0.2 mg/kg) i.v.): increased systolic arterial pressure significantly in both WT and AC5KO; also recorded: increased systolic arterial pressure similarly in both WT and AC5KO

Structure (SMILES): CC(=O)OCC[N+](C)(C)C [ACh, acetylcholine]
decrease of HR ([2]; conscious AC5KO, 0.01 μg/g i.v. (Example 2)): 7.5%
decrease of HR ([2]; conscious AC5KO, 0.01 mg/kg i.v. (Example 3)): 1.3%
decrease of HR ([2]; conscious WT, 0.01 μg/g i.v. (Example 2)): 22%
decrease of HR ([2]; conscious WT, 0.01 mg/kg i.v. (Example 3)): 15%

inhibition of AC2 (in words) (AC2): only to a modest degree
inhibition of AC5 (in words) (AC5 [1]; in the presence of Gsalpha/GTPgammaS/forskolin): potently inhibited AC5
inhibition of AC3 (in words) (AC3): only to a modest degree
Structure (SMILES): Nc1ncnc2c1ncn2C1CCCC1 [CPA, 9-(cyclopentyl)adenine]
